One data set concerns the target T1, XIAP-BIR3 (Homo sapiens, UniProt P98170).
T1 construct: 40 nM of XIAP-BIR3 for 15 min at RT
Nature of the data set: XIAP BIR-3 fluorescence polarization binding assay. The note with it: read-out: KD Range. On the procedure:
Following incubation, the polarization values (mP) were measured on a Victor^2V using a 485 nm excitation filter and a 520 nm emission filter. IC50 values were determined from the plot using nonlinear least-squares analysis using GraphPad Prism.
In general terms: Fluorescence polarisation rises when a labelled molecule tumbles more slowly, as on binding a larger partner.

Data set [1] is described as follows: Half life after single intravenous dose in rat. The note with it: in vivo, single IV dose 1 mg/kg, FIG. 2, read-out: terminal elimination half life (converted). As to the method:
The IV dose for each Smac mimetic was 1 mg/kg.

For a further data set, the system named is MDA MB-231 cells. The data set is described as follows: Apoptosis induction, Annexin V/Propidium Iodide staining. The class given is cell-based. On the procedure: To show the ability of Smac mimetics to induce apoptosis, Annexin V-fluorescein isothiocyanate staining was performed. […] Cells were then pelleted and resuspended in assay buffer (supplied by manufacturer). Annexin V and propidium iodide were added to the cell preparations and incubated for 1 hour in the dark at room temperature. Following the incubation additional buffer (200 μl) was then added to each tube, and the samples were analyzed immediately by flow cytometry. In the presence of Smac mimetics apoptosis was strongly promoted, as assessed by annexin/PI staining and analyzed by flow cytometry. The amplification in the number of apoptotic cells (Annexin V positive/propidium iodide negative—lower right quadrant) by IAP antagonists as compared to control was dose dependent and due to the induction of apoptosis and not via increasing the proportion of necrotic cells.

For another data set, the system named is OVCAR-3 cells. The data set is described as follows: Cytotoxicity synergy matrix (MacSynergy II) with paclitaxel, cisplatin, carboplatin. It counts as cell-based. On the procedure: To further assess potential drug-drug interactions a matrix of the permutations of two-fold serial dilutions of each drug and a Snac mimetic were tested as well as the activity of each compound alone using a program called MacSynergy II (Prichard, M. N., K. R. Aseltine, and C. Shipman, Jr. 1993. MacSynergy II. User's manual. Univ. of Michigan, Ann Arbor). The synergy with paclitaxel and the Smac peptidomimetic Entry 122 in OVCAR3 cells was tested. The highest amount of synergy detected is 10-20% which indicates greater cell death than would be expected by adding together the cytotoxicity of either compound alone.
Paclitaxel the dosage ranged from about 0.0 to about 500.0 nM. For Entry 122, the dosage range was about 125.0 to about 8000.0 nM. The total synergistic volume was about 170.
The synergy with cisplatin and the Smac peptidomimetics in OVCAR-3 cells was tested The highest amount of synergy is 40-50% more cell death than would be expected by adding together the cytotoxicity of each compound alone. […] For cisplatin the dosage range was about 0.0 to about 166,500.0 nM. For Entry 122, the dosage range was about 500.0 to about 32,000.0 nM. The total synergistic volume was about 434. Similar tests were performed with the combination of carboplatin and Smac mimetics. Synergy between a Smac peptidomimetic, Entry 122, and carboplatin.

[2] abbreviates: 5 nM AbuRPF-K(5-Fam)-NH2, 40 nM XIAP-BIR3, 15 min RT, pH 7.5.

Read-outs that look alike come from different tables or passages of the source.

T1 sequence (P98170 241-356 limits assumed): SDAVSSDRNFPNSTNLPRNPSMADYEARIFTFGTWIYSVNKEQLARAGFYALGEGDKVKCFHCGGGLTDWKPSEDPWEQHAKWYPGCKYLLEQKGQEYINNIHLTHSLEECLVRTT

For orientation: Kd means the concentration at which binding is half-saturated. As a reminder, the half-life is the time needed for the level to fall by half in the phase considered. In the case of `CN[C@@H](C)C(=O)N[C@H](C(=O)N1CCC[C@H]1Cc1cn(CCOCCn2cc(C[C@@H]3CCCN3C(=O)[C@@H](NC(=O)[C@H](C)NC)C3CCCCC3)c3ccc(F)cc32)c2cc(F)ccc12)C1CCCCC1` [Entry 123], the dissociation constant (Kd) at XIAP-BIR3 (Example 9 series) is under 100 nM. Further, the half-life in data set [1] was at most 6 h. As to `CN[C@@H](C)C(=O)N[C@H](C(=O)N1CCC[C@H]1Cc1cn(CC#CC#CCn2cc(C[C@@H]3CCCN3C(=O)[C@@H](NC(=O)[C@H](C)NC)C(C)C)c3ccccc32)c2ccccc12)C(C)C` [Entry 121], the Kd at XIAP-BIR3 (setting [2]) is under 100 nM. In the data set with MDA MB-231 cells (MDA MB-231, after 4 hours), the “apoptosis induced, agent alone” value is “failed to induce significant apoptosis” and the “increase in apoptotic activity, combination of TRAIL with compound” value was 4 fold. For the same molecule, in the data set with MDA MB-231 cells (MDA MB-231, without TRAIL), the “apoptosis, compound alone” value is “approximately 10 % of cell total”.

Take `CN[C@@H](C)C(=O)N[C@H](C(=O)N1CCC[C@H]1Cc1cn(CCOCCn2cc(C[C@@H]3CCCN3C(=O)[C@@H](NC(=O)[C@H](C)NC)C3CCCCC3)c3ccccc32)c2ccccc12)C1CCCCC1` [Entry 122]: the Kd at XIAP-BIR3 (Example 9 series) is under 100 nM. Besides, the total synergistic volume result with OVCAR-3 cells (OVCAR3, paclitaxel 0.0-500.0 nM, compound 125.0-8000.0 nM) is “about 170”; in the data set with OVCAR-3 cells (OVCAR-3, cisplatin 0.0-166,500.0 nM, compound 500.0-32,000.0 nM), “about 434”. In addition, the “highest amount of synergy detected” value in the data set with OVCAR-3 cells (OVCAR3, with paclitaxel) is listed as 10-20%. The “synergy with carboplatin” value in the data set on OVCAR-3 cells (OVCAR-3, with carboplatin) is reported as “Synergy”. For the same molecule, the “highest amount of synergy, more cell death than expected” value in the data set on OVCAR-3 cells (OVCAR-3, with cisplatin) is 40-50%. For the same molecule, the half-life in data set [1] was at most 6 h. As to `CN[C@@H](C)C(=O)N[C@H](C(=O)N1CCC[C@H]1Cc1c(-c2[nH]c3ccc(F)cc3c2C[C@@H]2CCCN2C(=O)[C@@H](NC(=O)[C@H](C)NC)C2CCCCC2)[nH]c2ccc(F)cc12)C1CCCCC1` [Entry 83], the Kd on XIAP-BIR3 (Example 4 series) is under 100 nM.

On to `CN[C@@H](C)C(=O)N[C@H](C(=O)N1CCC[C@H]1Cc1c(-c2ccc(-c3[nH]c4cc(F)ccc4c3C[C@@H]3CCCN3C(=O)[C@@H](NC(=O)[C@H](C)NC)C3CCCCC3)cc2)[nH]c2cc(F)ccc12)C1CCCCC1` [Entry 20], for which the dissociation constant (Kd) at XIAP-BIR3 (setting [2]) was under 100 nM.

With `CN[C@@H](C)C(=O)N[C@H](C(=O)N1CCC[C@H]1Cc1c(-c2ccc(-c3c(C[C@@H]4CCCN4C(=O)[C@@H](NC(=O)[C@H](C)NC)C(C)C)c4ccc(F)cc4n3CCO)cc2)[nH]c2cc(F)ccc12)C(C)C` [Entry 67], the Kd on XIAP-BIR3 (setting [2]) is under 100 nM. Take `CC[C@H](NC(=O)[C@H](C)NC)C(=O)N1CCC[C@H]1Cc1c(-c2[nH]c3cc(F)ccc3c2C[C@@H]2CCCN2C(=O)[C@H](CC)NC(=O)[C@H](C)NC)[nH]c2cc(F)ccc12` [Entry 79]: the equilibrium dissociation constant (Kd) at XIAP-BIR3 (Example 4 series) was under 100 nM.

With `CN[C@@H](C)C(=O)N[C@H](C(=O)N1C[C@H](O)C[C@H]1Cc1c(-c2ccc(-c3[nH]c4ccccc4c3C[C@@H]3C[C@@H](O)CN3C(=O)[C@@H](NC(=O)[C@H](C)NC)C(C)(C)C)cc2)[nH]c2ccccc12)C(C)(C)C` [Entry 22], the equilibrium dissociation constant (Kd) on XIAP-BIR3 (setting [2]) fell in the range of 100 to 1000 nM.

For `CN[C@@H](C)C(=O)N[C@H](C(=O)N1CCC[C@H]1Cc1c(-c2ccc(-c3c(C[C@@H]4CCCN4C(=O)[C@@H](NC(=O)[C@H](C)NC)[C@@H](C)O)c4ccc(F)cc4n3C)cc2)n(C)c2cc(F)ccc12)[C@@H](C)O` [Entry 58], on XIAP-BIR3 (setting [2]), the equilibrium dissociation constant (Kd) is under 100 nM. For the molecule `CN[C@@H](C)C(=O)N[C@H](C(=O)N1CCC[C@H]1Cc1c(-c2ccc(-c3[nH]c4ccc(F)cc4c3C[C@@H]3CCCN3C(=O)[C@@H](NC(=O)[C@H](C)NC)C(C)C)cc2)[nH]c2ccc(F)cc12)C(C)C` [Entry 35], on XIAP-BIR3 (setting [2]), the equilibrium dissociation constant (Kd) is under 100 nM.

As for `CN[C@@H](C)C(=O)N[C@H](C(=O)N1CCC[C@H]1Cc1c(-c2ccc(-c3[nH]c4cc(F)ccc4c3C[C@@H]3CCCN3C(=O)[C@@H](NC(=O)[C@H](C)NC)[C@@H](C)OCc3ccccc3)cc2)[nH]c2cc(F)ccc12)[C@@H](C)O` [Entry 32], at XIAP-BIR3 (setting [2]), the dissociation constant Kd was under 100 nM.

As to `CN[C@@H](C)C(=O)N[C@H](C(=O)N1CCC[C@H]1Cc1c(-c2ccc(-c3[nH]c4cc(F)ccc4c3C[C@@H]3CCCN3C(=O)[C@@H](NC(=O)[C@H](C)NC)[C@@H](C)OCc3ccccc3)cc2)[nH]c2cc(F)ccc12)[C@@H](C)OCc1ccccc1` [Entry 33], on XIAP-BIR3 (setting [2]), the equilibrium dissociation constant (Kd) was under 100 nM. With `CN[C@H](C)C(=O)N[C@H](C(=O)N1CCC[C@H]1Cc1c(-c2ccc(-c3c(C[C@@H]4CCCN4C(=O)[C@@H](NC(=O)[C@@H](C)NC)C(C)(C)C)c4ccc(F)cc4n3CCO)cc2)[nH]c2cc(F)ccc12)C(C)(C)C` [Entry 71], on XIAP-BIR3 (setting [2]), the Kd was in the range of 100 to 1000 nM. In the case of `CN[C@@H](C)C(=O)NCC(=O)N1CCC[C@H]1Cc1c(-c2[nH]c3cc(F)ccc3c2C[C@@H]2CCCN2C(=O)CNC(=O)[C@H](C)NC)[nH]c2cc(F)ccc12` [Entry 76], the dissociation constant (Kd) at XIAP-BIR3 (Example 4 series) lay in the range of 100 to 1000 nM. Regarding `CC[C@H](NC)C(=O)N[C@H](C(=O)N1CCC[C@H]1Cc1cn(CCOCCn2cc(C[C@@H]3CCCN3C(=O)[C@@H](NC(=O)[C@H](CC)NC)[C@@H](C)O)c3cc(F)ccc32)c2ccc(F)cc12)[C@@H](C)O` [Entry 125], at XIAP-BIR3 (Example 9 series), the dissociation constant (Kd) fell in the range of 100 to 1000 nM. Take `CN[C@@H](C)C(=O)N[C@H](C(=O)N1C[C@@H](O)C[C@H]1Cc1c(-c2ccc(-c3[nH]c4ccccc4c3C[C@@H]3C[C@H](O)CN3C(=O)[C@@H](NC(=O)[C@H](C)NC)C(C)(C)C)cc2)[nH]c2ccccc12)C(C)(C)C` [Entry 34]: at XIAP-BIR3 (setting [2]), the dissociation constant Kd was under 100 nM. As for `CN[C@@H](C)C(=O)N[C@H](C(=O)N1CCC[C@H]1Cc1c(-c2[nH]c3cc(F)ccc3c2C[C@@H]2CCCN2C(=O)[C@@H](NC(=O)[C@H](C)NC)C(C)(C)C)[nH]c2cc(F)ccc12)C(C)(C)C` [Entry 84], the equilibrium dissociation constant (Kd) at XIAP-BIR3 (Example 4 series) was under 100 nM.

As to `CN[C@@H](C)C(=O)N[C@H](C(=O)N1CCC[C@H]1Cc1c(-c2ccc(-c3c(C[C@@H]4CCCN4C(=O)[C@@H](NC(=O)[C@H](C)NC)C(C)(C)C)c4ccc(F)cc4n3CCOC(C)=O)cc2)n(CCOC(C)=O)c2cc(F)ccc12)C(C)(C)C` [Entry 49], the Kd at XIAP-BIR3 (setting [2]) is under 100 nM.

As to `CN[C@@H](C)C(=O)N[C@H](C(=O)N1CCC[C@H]1Cc1c(-c2ccc(-c3[nH]c4cc(F)ccc4c3C[C@@H]3CCCN3C(=O)[C@@H](NC(=O)[C@H](C)NC)C(C)C)cc2)[nH]c2cc(F)ccc12)C(C)C` [Entry 16], on XIAP-BIR3 (setting [2]), the Kd was under 100 nM. `CNC(C)C(=O)NC(C(=O)N1CCCC1Cc1c(-c2[nH]c3cc(F)ccc3c2CC2CCCN2C(=O)C(NC(=O)C(C)NC)C(C)O)[nH]c2cc(F)ccc12)C(C)O` (stereo not shown) [Entry 72]: the dissociation constant (Kd) on XIAP-BIR3 (Example 4 series) was under 100 nM.

B1: TRAIL: tumor necrosis factor-related apoptosis-inducing ligand (TRAIL) (protein, UniProt P50591 1-281, looked up)
Tumor necrosis factor ligand …: MAMMEVQGGPSLGQTCVLIVIFTVLLQSLCVAVTYVYFTNELKQMQDKYSKSGIACFLKEDDSYWDPNDEESMNSPCWQVKWQLRQLVRKMILRTSEETISTVQEKQQNISPLVRERGPQRVAAHITGTRGRSNTLSSPNSKNEKALGRKINSWESSRSGHSFLSNLHLRNGELVIHEKGFYYIYSQTYFRFQEEIKENTKNDKQMVQYIYKYTSYPDPILLMKSARNSCWSKDAEYGLYSIYQGGIFELKENDRIFVSVTNEHLIDMDHEASFFGAFLVG
As for B1, in the data set with MDA MB-231 cells (MDA MB-231, after 4 hours), the “apoptosis induced, agent alone” value is reported as “little, if any”.

The values are drawn from US9187490B2, “Dimeric IAP inhibitors” (TetraLogic Pharmaceuticals Corporation, priority 2005, dated 2015).
